Data reported in patent EP0234178A1, “New 8-substituted derivatives of an anhydrooctonic acid, methods for their preparation, pharmaceutical preparations containing these and intermediates” (Astra Läkemedel Aktiebolag, priority 1985, dated 1987).

How the values were obtained:
[1] = test system: Gram-negative bacteria; experiment: Test I Bactericidal activity (viable count after exposure to drug); type: cell-based; details: final concentration of ImM, 15 min exposure, number of viable bacteria
Protocol: A range of Gram-negative bacteria were grown at 37°C in aerobic shake culture in nutrient broth for 16 h. O.I ml of these cultures were each inoculated into 5 ml of fresh broth and the cultures incubated further, until the bacteria reached mid-logarithmic phase, when the culture was harvested by centrifugation and resuspended in Basal Medium 2 (J Bacteriol 117 (1974) 3O2-311) to an OD 1cm 620 mm = 0.2 (equivalent to 10^8 bacteria/ml). Test compound was added to the bacterial suspension to give a final concentration of ImM. After 15 min exposure to drug the number of viable bacteria was determined by serial dilution in sterile phosphate buffered saline (PBS), plating out onto McConkey agar plates and incubating for 16 h at 37°C.

[2] = test system: S. typhimurium AG701 i50 (KdsA^ts); experiment: Test III Inhibition of incorporation of 3H-arabinose-5-phosphate into LPS; type: cell-based, Salmonella typhimurium; details: S. typhimurium AG701 i50, 30°C, samples after 10 min
Protocol: Arabinose-5-phosphate is a precursor of KDO in enteric bacteria. KdsA mutants of Salmonella typhimurium rapidly take up exogenous arabinose-5-phosphate and convert it to KDO which then appears exclusively in LPS (J. Biol. Chem. 255 (1980) 4257).
S. typhimurium AG701 i50 (KdsA^ts) was grown overnight at 30°C in minimal Medium (Eur. J. Biochem. 107 (1980) 145-153) supplemented with 1% glycerol and 0.01 mM D-fucose. The next day 0.1 ml of overnight culture was added to fresh medium and the culture grown at 30°C until mid logarithmic phase - (OD [formula] mm = 0.2) when 50 µl of "H-arabinose-5-phosphate (Amersham; specific activity 72 µCi/ml)-was added. After 10 min 0.45 ml samples were taken, the bacteria colleced by filtration (Whatman GF/F glass fibre filter) and washed with 6 ^x Iml PBS followed by 100 ml boiling water. This procedure ensures that all radioactive counts recorded represent arabinose-5-phosphate incorporated into LPS as KDO (J. Biol. Chem. 255 (1980) 4257).

`C[C@H](N)C(=O)N[C@@H](C)C(=O)NC[C@@H](O)[C@H]1O[C@H](C(=O)O)C[C@@H](O)[C@H]1O` [Compound 6, N-(L-alanyl-L-alanyl)-8-amino-2,6-anhydro-3,8-dideoxy-D-glycero-D-talo-octonic acid] was tested, and the “inhibitory action against the bacteria” value [1] was “inhibitory action” and the “incorporation of arabinose-5-phosphate into LPS / denovo LPS biosynthesis” value [2] was “markedly inhibits”.
